Experimental data from PMC3702509, “Label Free Fragment Screening Using Surface Plasmon Resonance as a Tool for Fragment Finding – Analyzing Parkin, a Difficult CNS Target” (PLoS ONE, 2013).

Key:
[1] = molecular target: T1, FL-FLAG-Parkin RT (non-thermal treated) (Homo sapiens, UniProt O60260); experiment: SPR kinetics/affinity on non-thermal treated FL-FLAG Parkin captured by anti-FLAG antibody; format: binding; conditions: for direct binding of reducing agent by SPR: non-thermal treated Parkin
T1 construct: the entire coding region (residues 1–465) from NM_004562.1 was cloned into pFastBac; made in house; host or cells: Sf9 or Sf21 insect cells (baculovirus)
T1 sequence (O60260 1-465): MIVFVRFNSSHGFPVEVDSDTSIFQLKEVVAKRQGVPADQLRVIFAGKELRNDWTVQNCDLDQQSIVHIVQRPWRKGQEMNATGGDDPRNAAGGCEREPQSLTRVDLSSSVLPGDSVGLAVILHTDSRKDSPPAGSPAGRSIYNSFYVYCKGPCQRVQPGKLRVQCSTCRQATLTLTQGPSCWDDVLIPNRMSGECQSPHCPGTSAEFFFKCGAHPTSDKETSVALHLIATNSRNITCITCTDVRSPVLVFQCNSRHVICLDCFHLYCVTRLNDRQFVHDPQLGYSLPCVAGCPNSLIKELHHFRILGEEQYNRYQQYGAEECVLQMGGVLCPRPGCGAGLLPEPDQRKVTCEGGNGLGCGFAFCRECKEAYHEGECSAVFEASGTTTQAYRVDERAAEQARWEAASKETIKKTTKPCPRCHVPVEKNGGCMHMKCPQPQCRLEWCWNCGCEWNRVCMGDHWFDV
Procedure: Kinetics and Affinity measurements were performed on a GE Healthcare Biacore T100 or T200 instrument. Anti-FLAG antibody M2 was immobilized on a CM5 sensor chip using standard amine coupling procedure at a concentration of 100 μg/ml to a level of 10000 response units (RU). […] Flow cell 2 contained antibody only to control for non-specific binding of fragments to the antibody, and flow cells 3 and 4 contained antibody and captured Parkin. Untagged Parkin domain R0RBR was immobilized by amine coupling at a concentration of 100 μg/ml in 10 mM acetic acid pH 5.0 using the same running buffer as for anti-FLAG antibody immobilization. […]
(§1) The flow rate was 30μl/min. The time-dependent binding curves were monitored simultaneously. The surfaces were then regenerated after each binding experiment by washing the surfaces with an injection of running buffer. Kinetics and affinity experiments were repeated at least twice at two different test occasions.
(§2) Kinetic and affinity data were solvent corrected (fragments only), reference subtracted and blank subtracted using the Biacore T200 evaluation software V.1. Kinetic constants were determined by curve fitting using a 1∶1 binding model. Association and dissociation curves were fitted globally or locally. The rate of complex formation (1∶1 interaction) during fragment injection was calculated according to the equation (2): [drawing 2] (2) where R is the SPR signal in response units (RU), C is the concentration of analyte, Rmax is the maximum analyte binding capacity in RU, dR/dt is the rate of SPR signal change. To determine the association constant ka between fragment and protein, the early binding phase was used. The dissociation phase kd was measured using the rate of decline in RU after the injection stop, when free running buffer is flowing over the surface. Data were simultaneously fitted by the software and the dissociation constant KD calculated using equation (3). [drawing 3] (3) Ligand efficiency (LE, Δg) was calculated as the binding energy of ligand per atom (equation 4) [drawing 4] (4) where Nh is the number of heavy (i.e., non-hydrogen) atoms in the ligand.
The dissociation half-life (t1/2) was calculated by equation (5). [drawing 5] (5)

[2] = molecular target: T2, FL-FLAG-Parkin 56°C (thermal treated) (Homo sapiens, UniProt O60260); experiment: SPR kinetics/affinity on thermal treated FL-FLAG Parkin captured by anti-FLAG antibody; format: binding
T2 construct: the entire coding region (residues 1–465) from NM_004562.1 was cloned into pFastBac; made in house; host or cells: Sf9 or Sf21 insect cells (baculovirus)
T2 sequence (O60260 1-465): T1 sequence (O60260 1-465)
Procedure: Kinetics and Affinity measurements were performed on a GE Healthcare Biacore T100 or T200 instrument. Anti-FLAG antibody M2 was immobilized on a CM5 sensor chip using standard amine coupling procedure at a concentration of 100 μg/ml to a level of 10000 response units (RU). […] The running buffer for both methods was 10 mM HEPES pH 7.4, 150 mM NaCl, 0.005% Tween-20, 4 mM reducing agent. […] Flow cell 2 contained antibody only to control for non-specific binding of fragments to the antibody, and flow cells 3 and 4 contained antibody and captured Parkin. Untagged Parkin domain R0RBR was immobilized by amine coupling at a concentration of 100 μg/ml in 10 mM acetic acid pH 5.0 using the same running buffer as for anti-FLAG antibody immobilization. The surface was then washed with 10 mM HEPES pH 7.4, 150 mM NaCl, 0.005% Tween-20, 4 mM reducing agent for at least one hour.
as §1
as §2, with “(2) where R is the SPR signal in response units (RU), C is the concentration of analyte, Rmax is the maximum analyte binding capacity in RU, dR/dt is the rate of SPR signal change. To determine the association constant ka between fragment and protein, the early binding phase was used.” left out, “[drawing 3]” left out, “(4) where Nh is the number of heavy (i.e., non-hydrogen) atoms in the ligand.” left out
The dissociation half-life (t1/2) was calculated by equation (5). […]

FL-FLAG Parkin [3] = molecular target: T3, FL-FLAG Parkin (Homo sapiens, UniProt O60260); experiment: STD NMR binding to FL-FLAG-Parkin; conditions: 4 µM FL Parkin, 0.5 mM DTT, 0.25 mM compound Z, signal at 2.6 ppm
T3 construct: the entire coding region (residues 1–465) from NM_004562.1 was cloned into pFastBac; made in house; host or cells: Sf9 or Sf21 insect cells (baculovirus)
T3 sequence (O60260 1-465): T1 sequence (O60260 1-465)
Procedure: All NMR experiments were conducted at 15°C on a Bruker Avance 700 MHz spectrometer equipped with a 5 mm TCI cryo-probe. 3 mm NMR tubes were used for reducing the protein consumption. […] The compound concentration was 0.25 mM. […] The Mnova 7.0 (Mestrelab Research) was used in data analysis.

FL-FLAG Parkin [4] = molecular target: T3, FL-FLAG Parkin; experiment: S5a ubiquitination HTRF (TR-FRET) assay; format: biochemical; conditions: Parkin heated at 56°C in presence of reducing agent; DTT at optimal 5–10 mM
Procedure: FL FLAG-Parkin (35 μM stock) was thermally treated by incubating at 56°C for 30 min. The thermally treated FL FLAG-Parkin stock was stored at −80 C. 5 μl of thermally treated or non-treated FLAG-Parkin diluted in assay buffer was added to wells of a 384-well non-binding plate. […] The reaction was allowed to proceed for 120 min at 30°C. 10 μl of stop-detection mix was added to a final concentration of 75 nM streptavidin XL665 conjugate, 12 mM EDTA in buffer containing 100 mM Na2HPO4 pH 7.0, 300 mM KF, and 0.1% BSA. The 20 μl reaction mixture was incubated for 60 min at room temperature. HTRF read using a LJL Analyst plate reader (Molecular Devices) at excitation 320 nm and emission 665 nm & 615 nm.

R0RBR Domain RT = molecular target: T4, R0RBR Domain RT (Homo sapiens, UniProt O60260); experiment: SPR kinetics/affinity on amine-coupled Parkin R0RBR domain; format: binding; conditions: read-out: Affinities KD of protein ligands
T4 construct: DNA encoding residues 141–465 of Parkin (NM_004562.1) were cloned into the Champion pET SUMO vector; SUMO (His-SUMO of the Champion pET SUMO vector) (N, cleaved yes); made in house; host or cells: E. coli BL21 DE3
T4 sequence (O60260 141-465): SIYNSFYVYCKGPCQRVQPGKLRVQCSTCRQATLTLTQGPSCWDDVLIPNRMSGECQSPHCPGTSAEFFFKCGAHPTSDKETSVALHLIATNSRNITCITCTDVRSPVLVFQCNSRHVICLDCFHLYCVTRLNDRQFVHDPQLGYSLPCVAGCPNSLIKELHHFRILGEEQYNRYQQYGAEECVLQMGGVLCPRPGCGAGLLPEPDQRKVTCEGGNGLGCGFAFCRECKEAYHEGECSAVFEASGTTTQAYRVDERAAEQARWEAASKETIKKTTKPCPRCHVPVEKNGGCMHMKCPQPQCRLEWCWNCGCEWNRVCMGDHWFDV
Procedure: Kinetics and Affinity measurements were performed on a GE Healthcare Biacore T100 or T200 instrument. Anti-FLAG antibody M2 was immobilized on a CM5 sensor chip using standard amine coupling procedure at a concentration of 100 μg/ml to a level of 10000 response units (RU). Monomeric non-thermal treated FL-Parkin or thermal treated FL-Parkin was captured in 10 mM acetic acid pH 4.5 to levels of up to 16000 RU. The running buffer for both methods was 10 mM HEPES pH 7.4, 150 mM NaCl, 0.005% Tween-20, 4 mM reducing agent. Typically, the 4 flow cells of the sensor chips were used as follows: flow cell 1 served as a reference and was activated and deactivated. […]
To test binding of reducing agents in the absence of small molecules, the reducing agents were diluted and injected in buffer without reducing agents for 180 sec and a dissociation phase of 600 sec. […] The time-dependent binding curves were monitored simultaneously. […]
Kinetic and affinity data were solvent corrected (fragments only), reference subtracted and blank subtracted using the Biacore T200 evaluation software V.1. Kinetic constants were determined by curve fitting using a 1∶1 binding model. […] The rate of complex formation (1∶1 interaction) during fragment injection was calculated according to the equation (2): [drawing 2] […] Data were simultaneously fitted by the software and the dissociation constant KD calculated using equation (3). […]

[5] = SPR, 50 mM HEPES pH 8.8, 0.005% Tween-20, 0.01% PF-127, no other reducing agent

Row | Molecule | Kd [1, 5] | affinity (KD) of reducing agent [1, 5] | Rmax ([1]; SPR, same run as the KD of DTT) | binding activity % Rmax ([1]; SPR, same run as the KD of DTT) | dissociation half-life ([1]; calculated from the dissociation rate kd) | direct binding of reducing agent by SPR [1] | direct binding of reducing agent by SPR [2] | DTT binding in STD spectrum (FL-FLAG Parkin [3]) | improvement of Parkin S5a ubiquitination activity (FL-FLAG Parkin [4]) | dissociation at a fast rate (kd), time ([1]; SPR, protein ligand) | Kd (R0RBR Domain RT)
1 | O[C@@H](CS)[C@@H](O)CS (racemic) [DTT, Dithiothreitol] | 1.4 µM | low micro-molar affinity | 34 RU | 47 % Rmax | 28.95 min | showed binding | showed binding | binding was evident | – | – | –
2 | OCCS [BME, β-mercaptoethanol] | – | – | – | – | – | did not exhibit any binding | did not exhibit any binding | – | up to 2.5 fold | – | –
3 | O=C(O)CCP(CCC(=O)O)CCC(=O)O [TCEP] | – | – | – | – | – | did not exhibit any binding | did not exhibit any binding | – | up to 2.5 fold | – | –
4 | UbcH7: Ubiquitin conjugating enzyme E2, non-tagged, purified in house | – | – | – | – | – | – | – | – | – | 30 s | 7.1 µM
